Reference: US20230391845A1, “GLP-1, GIP AND GLUCAGON RECEPTOR TRIPLE AGONISTS” (priority 2020, published 2023)
*1 amine or outer side, *2 acyl side, *3 side chain or, on linkers, in order; H or OH if unused. Where a SMILES comes first, the peptide text is derived from it. Side-chain parts run from the residue outwards. [ ]: non-standard residue; d: D form. The star is where a group is joined. X1 = O=C(O)CCCCCCCCCCCCCCCCCCC(=O)NCC1CCC(C(=O)*)CC1; C20 diacid = O=C(O)CCCCCCCCCCCCCCCCCCC(=O)*; C18 diacid = O=C(O)CCCCCCCCCCCCCCCCC(=O)*; γGlu = O=C(O)[C@H](CCC(=O)[*:2])N[*:1]; εLys = N[C@@H](CCCCN[*:1])C(=O)[*:2]; AEEA = NCCOCCOCC(=O)O; Aib = CC(C)(N)C(=O)O

Test: Pharmacokinetic study in minipigs, i.v. administration
Set-up: species or system Göttingen minipigs
Conditions: female, Göttingen, minipig, in vivo, iv
Experimental: The purpose of this example is to determine the half-life in vivo of the triple agonists as described herein after i.v. administration to minipigs, i.e. the prolongation of their time in the body and thereby their time of action. This is done in a pharmacokinetic (PK) study, where the terminal half-life of the triple agonist in question is determined. By terminal half-life is generally meant the period of time it takes to halve a certain plasma concentration, measured after the initial distribution phase.
Female Göttingen minipigs were obtained from Ellegaard Göttingen Minipigs (Dalmose, Denmark) approximately 7-14 months of age and weighing from approximately 16-35 kg were used in the studies. The minipigs were housed individually and fed restrictedly once daily with SDS minipig diet (Special Diets Services, Essex, UK).
After at 3 weeks of acclimatisation two permanent central venous catheters were implanted in vena cava caudalis in each animal. The animals were allowed 1 week recovery after the surgery, and were then used for repeated pharmacokinetic studies with a suitable wash-out period between successive dosings.
The animals were fasted for approximately 18 hours before dosing and from 0 to 4 hours after dosing, but had adlibitum access to water during the whole period.
Intravenous injections (the volume corresponding to usually 1.5-2 nmol/kg, for example 0.1 mL/kg) of the triple agonists were given through one catheter, and blood was sampled at predefined time points for up to 14 days post dosing (preferably through the other catheter). Blood samples (for example 0.8 mL) were collected in 8 mM EDTA buffer and then centrifuged at 4° C. and 1942 g for 10 minutes.
Plasma was pipetted into Micronic tubes on dry ice and kept at −20° C. until analysed for plasma concentration of the triple agonists using ELISA, or a similar antibody-based assay, or LCMS. Individual plasma concentration-time profiles were analysed by a non-compartmental model in Phoenix WinNonLin ver. 6.4. (Pharsight Inc., Mountain View, CA, USA), and the resulting terminal half-lives (harmonic mean) determined.
Compound `CC[C@H](C)[C@H](NC(=O)[C@H](CO)NC(=O)[C@H](Cc1ccc(O)cc1)NC(=O)[C@H](CC(=O)O)NC(=O)[C@H](CO)NC(=O)[C@@H](NC(=O)[C@H](Cc1ccccc1)NC(=O)[C@@H](NC(=O)CNC(=O)[C@H](CCC(N)=O)NC(=O)C(C)(C)NC(=O)[C@@H](N)Cc1ccc(O)cc1)[C@@H](C)O)[C@@H](C)O)C(=O)N[C@@H](Cc1ccc(O)cc1)C(=O)N[C@@H](CC(C)C)C(=O)N[C@@H](CC(=O)O)C(=O)N[C@@H](CCCCNC(=O)COCCOCCNC(=O)COCCOCCNC(=O)CC[C@H](NC(=O)CCCCCCCCCCCCCCCCCCC(=O)O)C(=O)O)C(=O)N[C@@H](CCC(N)=O)C(=O)N[C@@H](C)C(=O)N[C@@H](C)C(=O)NC(C)(C)C(=O)N[C@@H](CCC(=O)O)C(=O)N[C@@H](Cc1ccccc1)C(=O)N[C@H](C(=O)N[C@@H](CC(N)=O)C(=O)N[C@@H](Cc1c[nH]c2ccccc12)C(=O)N[C@@H](CC(C)C)C(=O)N[C@@H](CC(C)C)C(=O)N[C@@H](C)C(=O)NCC(=O)NCC(=O)N1CCC[C@H]1C(=O)N[C@@H](CO)C(=O)N[C@@H](CO)C(=O)NCC(=O)N[C@@H](C)C(=O)N1CCC[C@H]1C(=O)N1CCC[C@H]1C(=O)N1CCC[C@H]1C(=O)N[C@@H](CO)C(N)=O)C(C)C` [Compound No. 5] (H-Y[Aib]QGTFTSDYSIYLDK([AEEA-AEEA-γGlu-C20 diacid])QAA[Aib]EFVNWLLAGGPSSGAPPPS-NH2; N-terminus assumed) has a half-life of 85 h.
For `CC[C@H](C)[C@H](NC(=O)[C@H](CO)NC(=O)[C@H](Cc1ccc(O)cc1)NC(=O)[C@H](CC(=O)O)NC(=O)[C@H](CO)NC(=O)[C@@H](NC(=O)[C@H](Cc1ccccc1)NC(=O)[C@@H](NC(=O)CNC(=O)[C@H](CCC(N)=O)NC(=O)C(C)(C)NC(=O)[C@@H](N)Cc1ccc(O)cc1)[C@@H](C)O)[C@@H](C)O)C(=O)N[C@@H](Cc1ccc(O)cc1)C(=O)N[C@@H](CC(C)C)C(=O)N[C@@H](CC(=O)O)C(=O)N[C@@H](CCCCN)C(=O)N[C@@H](CCC(N)=O)C(=O)N[C@@H](C)C(=O)N[C@@H](C)C(=O)NC(C)(C)C(=O)N[C@@H](CCCCNC(=O)COCCOCCNC(=O)COCCOCCNC(=O)CC[C@H](NC(=O)CCCCCCCCCCCCCCCCCCC(=O)O)C(=O)O)C(=O)N[C@@H](Cc1ccccc1)C(=O)N[C@H](C(=O)N[C@@H](CCC(N)=O)C(=O)N[C@@H](Cc1c[nH]c2ccccc12)C(=O)N[C@@H](CC(C)C)C(=O)N[C@@H](CC(C)C)C(=O)N[C@@H](CCC(=O)O)C(=O)NCC(=O)NCC(=O)N1CCC[C@H]1C(=O)N[C@@H](CO)C(=O)N[C@@H](CO)C(=O)NCC(=O)N[C@@H](C)C(=O)N1CCC[C@H]1C(=O)N1CCC[C@H]1C(=O)N1CCC[C@H]1C(=O)N[C@@H](CO)C(N)=O)C(C)C` [Compound No. 7] (H-Y[Aib]QGTFTSDYSIYLDKQAA[Aib]K([AEEA-AEEA-γGlu-C20 diacid])FVQWLLEGGPSSGAPPPS-NH2; N-terminus assumed), the half-life was 79 h.
`CC(C)C[C@H](NC(=O)[C@H](CC(C)C)NC(=O)[C@H](Cc1c[nH]c2ccccc12)NC(=O)[C@H](CCC(N)=O)NC(=O)[C@@H](NC(=O)[C@H](Cc1ccccc1)NC(=O)[C@H](CCC(=O)O)NC(=O)C(C)(C)NC(=O)[C@H](C)NC(=O)[C@H](C)NC(=O)[C@H](CCC(N)=O)NC(=O)[C@H](CCCCNC(=O)[C@@H](N)CCCCNC(=O)[C@@H](N)CCCCNC(=O)CC[C@H](NC(=O)CCCCCCCCCCCCCCCCC(=O)O)C(=O)O)NC(=O)[C@H](CCC(=O)O)NC(=O)[C@H](CC(C)C)NC(=O)[C@H](Cc1ccc(O)cc1)NC(=O)[C@H](Cc1ccc(O)cc1)NC(=O)[C@H](CO)NC(=O)[C@H](Cc1ccc(O)cc1)NC(=O)[C@H](CC(=O)O)NC(=O)[C@H](CO)NC(=O)[C@@H](NC(=O)[C@H](Cc1ccccc1)NC(=O)[C@@H](NC(=O)CNC(=O)[C@H](Cc1c[nH]cn1)NC(=O)C(C)(C)NC(=O)[C@@H](N)Cc1c[nH]cn1)[C@@H](C)O)[C@@H](C)O)C(C)C)C(=O)N[C@@H](CCC(=O)O)C(=O)NCC(=O)NCC(=O)N1CCC[C@H]1C(=O)N[C@@H](CO)C(=O)N[C@@H](CO)C(=O)NCC(=O)N[C@@H](C)C(=O)N1CCC[C@H]1C(=O)N1CCC[C@H]1C(=O)N1CCC[C@H]1C(=O)N[C@@H](CO)C(N)=O` [Compound No. 32] (H-H[Aib]HGTFTSDYSYYLEK([εLys-εLys-γGlu-C18 diacid])QAA[Aib]EFVQWLLEGGPSSGAPPPS-NH2) gave a half-life of 52 h.

Same assay, conditions: minipig, in vivo, iv
`CC[C@H](C)[C@H](NC(=O)[C@H](CO)NC(=O)[C@H](Cc1ccc(O)cc1)NC(=O)[C@H](CC(=O)O)NC(=O)[C@H](CO)NC(=O)[C@@H](NC(=O)[C@H](Cc1ccccc1)NC(=O)[C@@H](NC(=O)CNC(=O)[C@H](CCC(N)=O)NC(=O)C(C)(C)NC(=O)[C@@H](N)Cc1ccc(O)cc1)[C@@H](C)O)[C@@H](C)O)C(=O)N[C@@H](Cc1ccc(O)cc1)C(=O)N[C@@H](CC(C)C)C(=O)N[C@@H](CC(=O)O)C(=O)N[C@@H](CCCCNC(=O)COCCOCCNC(=O)COCCOCCNC(=O)CC[C@H](NC(=O)C1CCC(CNC(=O)CCCCCCCCCCCCCCCCCCC(=O)O)CC1)C(=O)O)C(=O)N[C@@H](CCC(N)=O)C(=O)N[C@@H](C)C(=O)N[C@@H](C)C(=O)NC(C)(C)C(=O)N[C@@H](CCC(=O)O)C(=O)N[C@@H](Cc1ccccc1)C(=O)N[C@H](C(=O)N[C@@H](CC(N)=O)C(=O)N[C@@H](Cc1c[nH]c2ccccc12)C(=O)N[C@@H](CC(C)C)C(=O)N[C@@H](CC(C)C)C(=O)N[C@@H](C)C(=O)NCC(=O)NCC(=O)N1CCC[C@H]1C(=O)N[C@@H](CO)C(=O)N[C@@H](CO)C(=O)NCC(=O)N[C@@H](C)C(=O)N1CCC[C@H]1C(=O)N1CCC[C@H]1C(=O)N1CCC[C@H]1C(=O)N[C@@H](CO)C(N)=O)C(C)C` (stereo partly drawn) [Compound No. 6] (H-Y[Aib]QGTFTSDYSIYLDK([AEEA-AEEA-γGlu-X1])QAA[Aib]EFVNWLLAGGPSSGAPPPS-NH2) showed a half-life of 83 h.
Compound `CC[C@H](C)[C@H](NC(=O)[C@H](CO)NC(=O)[C@H](Cc1ccc(O)cc1)NC(=O)[C@H](CC(=O)O)NC(=O)[C@H](CO)NC(=O)[C@@H](NC(=O)[C@H](Cc1ccccc1)NC(=O)[C@@H](NC(=O)CNC(=O)[C@H](CCC(N)=O)NC(=O)C(C)(C)NC(=O)[C@@H](N)Cc1ccc(O)cc1)[C@@H](C)O)[C@@H](C)O)C(=O)N[C@@H](Cc1ccc(O)cc1)C(=O)N[C@@H](CC(C)C)C(=O)N[C@@H](CC(=O)O)C(=O)N[C@@H](CCCCN)C(=O)N[C@@H](CCC(N)=O)C(=O)N[C@@H](C)C(=O)N[C@@H](C)C(=O)NC(C)(C)C(=O)N[C@@H](CCCCNC(=O)COCCOCCNC(=O)COCCOCCNC(=O)CC[C@H](NC(=O)C1CCC(CNC(=O)CCCCCCCCCCCCCCCCCCC(=O)O)CC1)C(=O)O)C(=O)N[C@@H](Cc1ccccc1)C(=O)N[C@H](C(=O)N[C@@H](CCC(N)=O)C(=O)N[C@@H](Cc1c[nH]c2ccccc12)C(=O)N[C@@H](CC(C)C)C(=O)N[C@@H](CC(C)C)C(=O)N[C@@H](CCC(=O)O)C(=O)NCC(=O)NCC(=O)N1CCC[C@H]1C(=O)N[C@@H](CO)C(=O)N[C@@H](CO)C(=O)NCC(=O)N[C@@H](C)C(=O)N1CCC[C@H]1C(=O)N1CCC[C@H]1C(=O)N1CCC[C@H]1C(=O)N[C@@H](CO)C(N)=O)C(C)C` (stereo partly drawn) [Compound No. 8] (H-Y[Aib]QGTFTSDYSIYLDKQAA[Aib]K([AEEA-AEEA-γGlu-X1])FVQWLLEGGPSSGAPPPS-NH2; N-terminus assumed) has a half-life of 81 h.
In the case of `CC(C)C[C@H](NC(=O)[C@H](CC(C)C)NC(=O)[C@H](Cc1c[nH]c2ccccc12)NC(=O)[C@H](CCC(N)=O)NC(=O)[C@@H](NC(=O)[C@H](Cc1ccccc1)NC(=O)[C@H](CCC(=O)O)NC(=O)C(C)(C)NC(=O)[C@H](C)NC(=O)[C@H](C)NC(=O)[C@H](CCC(N)=O)NC(=O)[C@H](CCCCNC(=O)[C@@H](N)CCCCNC(=O)[C@@H](N)CCCCNC(=O)CC[C@H](NC(=O)C1CCC(CNC(=O)CCCCCCCCCCCCCCCCCCC(=O)O)CC1)C(=O)O)NC(=O)[C@H](CCC(=O)O)NC(=O)[C@H](CC(C)C)NC(=O)[C@H](Cc1ccc(O)cc1)NC(=O)[C@H](Cc1ccc(O)cc1)NC(=O)[C@H](CO)NC(=O)[C@H](Cc1ccc(O)cc1)NC(=O)[C@H](CC(=O)O)NC(=O)[C@H](CO)NC(=O)[C@@H](NC(=O)[C@H](Cc1ccccc1)NC(=O)[C@@H](NC(=O)CNC(=O)[C@H](Cc1c[nH]cn1)NC(=O)C(C)(C)NC(=O)[C@@H](N)Cc1c[nH]cn1)[C@@H](C)O)[C@@H](C)O)C(C)C)C(=O)N[C@@H](CCC(=O)O)C(=O)NCC(=O)NCC(=O)N1CCC[C@H]1C(=O)N[C@@H](CO)C(=O)N[C@@H](CO)C(=O)NCC(=O)N[C@@H](C)C(=O)N1CCC[C@H]1C(=O)N1CCC[C@H]1C(=O)N1CCC[C@H]1C(=O)N[C@@H](CO)C(N)=O` (stereo partly drawn) [Compound No. 25] (H-H[Aib]HGTFTSDYSYYLEK([εLys-εLys-γGlu-X1])QAA[Aib]EFVQWLLEGGPSSGAPPPS-NH2; N-terminus assumed), the half-life is reported as 79 h.
